Non-standard residues stand in square brackets, D forms with d. Residues, ends and D or L forms follow the SMILES beside them. *: point of attachment. dAla(cis-4-NHCOPyz-cHex) = N[C@H](C[C@H]1CC[C@@H](NC(=O)c2cnccn2)CC1)C(=O)O; dPhe(4-Cl) = N[C@H](Cc1ccc(Cl)cc1)C(=O)O; d2Nal = N[C@H](Cc1ccc2ccccc2c1)C(=O)O; Lys(iPr) = CC(C)NCCCC[C@H](N)C(=O)O; Orn(iPr) = CC(C)NCCC[C@H](N)C(=O)O; Pyrazinecarbonyl = O=C(c1cnccn1)*; d3Pal = N[C@H](Cc1cccnc1)C(=O)O; Nicotinoyl = O=C(c1cccnc1)*; Picolinoyl = O=C(c1ccccn1)*; Pip = O=C(O)[C@@H]1CCCCN1; Abu = CC[C@H](N)C(=O)O
Tested on: anaesthesized rats
Assay: wheal test, intradermal injection
Type: in vivo, rat
Set-up: Wheal (wheal response): unit not given here
Conditions: for Wheal: Table I; for Wheal / Wheal Area: 10 ug peptide intradermally
Protocol: The antiovulatory activity, AOA, in rats was determined as described by Humphries et al. (12). Antiovulation assays were performed by counting, on estrus, the number of ova shed by 4-day cycling rats after a single sc injection of the LH-RH analogue in corn oil was administered between 12 and 12:30 p.m. on […]. The control rats received 0.3 mL of the vehicle. The wheal test was performed by intradermally injecting 10 ug of peptide in 100 ul of saline into anaesthesized rats, measuring the ideally circular wheal response and calculating the area. The in vitro histamine release test was done as described by Karten et al. (4). A suspension of rat mast cells was added to increasing concentrations of peptide and the mixture was incubated for a few minutes followed by centrifugation to collect the histamine in the supernatant. A PIPES (piperazine-N,N'-bis[2-ethanesulfonic acid]) medium buffered at pH 7.4 containing NaCl 119 mM, KCl 5 mM, PIPES 25 mM, NaOH 40 mM, glucose 5.6 mM, CaCl2 1 mM, and 0.1% bovine serum albumin was used. This was designated as PIPES AC. Peptides were dissolved in double distilled H2 O at a concentration of 2 mg/ml and stored at -20° C. They were thawed just prior to testing, diluted in PIPES AC and prewarmed for five minutes at 37° C. Peptides studied were stable to heating at 56° C. for two hours, and to freezing and thawing.

Wheal	Wheal Area	Structure (SMILES)	also measured
–	71.0 ± 4.3 mm^2 /10 μg	CC(=O)N[C@H](Cc1ccc2ccccc2c1)C(=O)N[C@H](Cc1ccc(Cl)cc1)C(=O)N[C@H](Cc1c[nH]c2ccccc12)C(=O)N[C@@H](CO)C(=O)N[C@@H](CCCCNC(=O)c1ccccn1)C(=O)N[C@H](CCCCNC(=O)c1ccccn1)C(=O)N[C@@H](CC(C)C)C(=O)N[C@@H](CCCCNC(C)C)C(=O)N1CCC[C@H]1C(=O)N[C@H](C)C(N)=O [compound 26177] (Ac-[d2Nal][dPhe(4-Cl)][dW]SK(Picolinoyl)[dK](Picolinoyl)L[Lys(iPr)]P[dA]-NH2)	–
101.0 mm^2 /10	–	CC(=O)N[C@H](Cc1ccc2ccccc2c1)C(=O)N[C@H](Cc1ccc(Cl)cc1)C(=O)N[C@H](CCCCNC(=O)c1cccnc1)C(=O)N[C@@H](CO)C(=O)N[C@@H](Cc1ccc(O)cc1)C(=O)N[C@H](CCCCNC(=O)c1cccnc1)C(=O)N[C@@H](CC(C)C)C(=O)N[C@@H](CCCNC(=N)N)C(=O)N1CCC[C@H]1C(=O)N[C@H](C)C(N)=O [compound 24597] (Ac-[d2Nal][dPhe(4-Cl)][dK](Nicotinoyl)SY[dK](Nicotinoyl)LRP[dA]-NH2)	–
–	95.0 ± 0 mm^2 /10 μg	CC(=O)N[C@H](Cc1ccc2ccccc2c1)C(=O)N[C@H](Cc1ccc(Cl)cc1)C(=O)N[C@H](Cc1cccnc1)C(=O)N[C@@H](CO)C(=O)N[C@@H](CCCCNC(=O)c1ccccn1)C(=O)N[C@H](CCCCNC(=O)c1ccccn1)C(=O)N[C@@H](CC(C)C)C(=O)N[C@@H](CCCCNC(C)C)C(=O)N1CCCC[C@H]1C(=O)N[C@H](C)C(N)=O [compound 25937] (Ac-[d2Nal][dPhe(4-Cl)][d3Pal]SK(Picolinoyl)[dK](Picolinoyl)L[Lys(iPr)][Pip][dA]-NH2)	–

More lines, now with the values behind:

Structure (SMILES)	Wheal	Wheal Area	also measured
CC(=O)N[C@H](Cc1ccc2ccccc2c1)C(=O)N[C@H](Cc1ccc(Cl)cc1)C(=O)N[C@H](Cc1cccnc1)C(=O)N[C@@H](CO)C(=O)N[C@@H](CCCCNC(=O)c1ccccn1)C(=O)N[C@H](C[C@H]1CC[C@@H](NC(=O)c2cnccn2)CC1)C(=O)N[C@@H](CC(C)C)C(=O)N[C@@H](CCCCNC(C)C)C(=O)N1CCC[C@H]1C(=O)N[C@H](C)C(N)=O [compound 25897] (Ac-[d2Nal][dPhe(4-Cl)][d3Pal]SK(Picolinoyl)[dAla(cis-4-NHCOPyz-cHex)]L[Lys(iPr)]P[dA]-NH2)	–	–	Wheal (wheal response) (Table XIV and text, unit not given): 122.8
CC(=O)N[C@H](Cc1ccc2ccccc2c1)C(=O)N[C@H](Cc1ccc(Cl)cc1)C(=O)N[C@H](Cc1cccnc1)C(=O)N[C@@H](CO)C(=O)N[C@@H](CCCCNC(=O)c1cnccn1)C(=O)N[C@H](CCCCNC(=O)c1cnccn1)C(=O)N[C@@H](CC(C)C)C(=O)N[C@@H](CCCCNC(C)C)C(=O)N1CCC[C@H]1C(=O)N[C@H](C)C(N)=O [compound 25650] (Ac-[d2Nal][dPhe(4-Cl)][d3Pal]SK(Pyrazinecarbonyl)[dK](Pyrazinecarbonyl)L[Lys(iPr)]P[dA]-NH2)	110.2 mm^2 /10	–	–
CC[C@H](NC(=O)[C@@H](CCCCNC(=O)c1ccccn1)NC(=O)[C@H](CCCCNC(=O)c1ccccn1)NC(=O)[C@H](CO)NC(=O)[C@@H](Cc1cccnc1)NC(=O)[C@@H](Cc1ccc(Cl)cc1)NC(=O)[C@@H](Cc1ccc2ccccc2c1)NC(C)=O)C(=O)N[C@@H](CCCNC(C)C)C(=O)N1CCC[C@H]1C(=O)N[C@H](C)C(N)=O [compound 26179] (Ac-[d2Nal][dPhe(4-Cl)][d3Pal]SK(Picolinoyl)[dK](Picolinoyl)[Abu][Orn(iPr)]P[dA]-NH2)	–	101.5 ± 9.3 mm^2 /10 μg	–
CC[C@H](C)[C@H](NC(=O)[C@H](CO)NC(=O)[C@@H](Cc1cccnc1)NC(=O)[C@@H](Cc1ccc(Cl)cc1)NC(=O)[C@@H](Cc1ccc2ccccc2c1)NC(C)=O)C(=O)N[C@H](CCCCNC(=O)c1cccnc1)C(=O)N[C@@H](CC(C)C)C(=O)N[C@@H](CCCCNC(C)C)C(=O)N1CCC[C@H]1C(=O)N[C@H](C)C(N)=O [compound 25144] (Ac-[d2Nal][dPhe(4-Cl)][d3Pal]SI[dK](Nicotinoyl)L[Lys(iPr)]P[dA]-NH2)	147.7 mm^2 /10	–	–

Reference: patent publication US5763404A, “Methods for using LHRH antagonists with low histamine release” (priority 1995, dated 1998)
